Data reported in DBAASP.
In brackets after ≈: the same amount, converted by molar mass.

What was measured:
Test in all cases: ≥ marks a high value that may be exact or a test limit, other limits are often not marked, values filed in µg/mL are converted to µM
[1] = system: Escherichia coli ATCC 54127
[2] = system: Escherichia coli NCTC 10418
[3] = system: Pseudomonas aeruginosa ATCC 27853
[4] = system: Escherichia coli ATCC 25922
[5] = system: Staphylococcus aureus NCTC 10788
[6] = system: Pseudomonas aeruginosa CIP A22
[7] = system: Staphylococcus aureus ATCC 25923
[8] = system: Staphylococcus aureus NRS 72
[9] = system: Pseudomonas aeruginosa 919
[10] = system: Haemophilus influenzae ATCC 49247
[11] = system: Pseudomonas aeruginosa 910
[12] = system: Staphylococcus aureus USA 300
[13] = system: Acinetobacter baumannii ATCC 19606
[14] = system: Klebsiella pneumoniae NCTC 9633
[15] = system: Bacillus anthracis Sterne 34F2
[16] = system: Pseudomonas aeruginosa 253
[17] = system: Mycobacterium tuberculosis H37Ra

MIC [1] [µM] | MIC [2] [µM] | MIC [3] [µM] | MIC [4] [µM] | MIC [5] [µM] | MIC [6] [µM] | MIC [7] [µM] | SMILES | MIC [8] [µM] | MIC [9] [µM] | MIC [10] [µM] | MIC [11] [µM] | MIC [12] [µM] | MIC [13] [µM] | MIC [14] [µM] | MIC [15] [µM] | MIC [16] [µM] | MIC [17] [µM]
2.3 (≈ 6.89 µg/mL) | 5 (≈ 15 µg/mL) | 11.6 (≈ 34.8 µg/mL) | 5 (≈ 15 µg/mL) | 3 (≈ 8.99 µg/mL) | 4.6 (≈ 13.8 µg/mL) | 3 (≈ 8.99 µg/mL) | CC[C@H](C)[C@H](NC(=O)[C@H](CC(=O)O)NC(=O)[C@H](CCCCN)NC(=O)[C@H](Cc1c[nH]c2ccccc12)NC(=O)[C@H](CC(C)C)NC(=O)[C@H](C)N)C(=O)N[C@@H](CC(C)C)C(=O)N[C@@H](CCCCN)C(=O)N[C@@H](CC(N)=O)C(=O)N[C@H](C(=O)NCC(=O)N[C@@H](CCCCN)C(=O)N[C@@H](C)C(=O)N[C@@H](C)C(=O)NCC(=O)N[C@@H](CCCCN)C(=O)N[C@@H](C)C(=O)N[C@H](C(=O)N[C@@H](CC(C)C)C(=O)N[C@@H](CC(N)=O)C(=O)N[C@H](C(=O)N[C@H](C(=O)N[C@H](C(=O)N[C@@H](CC(=O)O)C(=O)N[C@@H](CCSC)C(=O)N[C@H](C(=O)N[C@@H](CC(N)=O)C(=O)N[C@@H](CCC(N)=O)C(N)=O)C(C)C)[C@@H](C)O)C(C)C)[C@@H](C)O)C(C)C)C(C)C [ALWKDILKNVGKAAGKAVLNTVTDMVNQ] |  |  |  |  |  |  |  |  |  | 
 |  |  |  |  |  |  | CC(C)[C@H](NC(=O)[C@H](Cc1c[nH]c2ccccc12)NC(=O)[C@H](CCCN=C(N)N)NC(=O)[C@H](Cc1c[nH]c2ccccc12)NC(=O)[C@H](Cc1c[nH]c2ccccc12)NC(=O)[C@H](CCCN=C(N)N)NC(=O)[C@@H](N)CCCN=C(N)N)C(=O)N[C@H](C(=O)N[C@@H](Cc1c[nH]c2ccccc12)C(N)=O)C(C)C [RRWWRWVVW] | 20 (≈ 28.6 µg/mL) | 2 (≈ 2.86 µg/mL) | ≥ 40 | 8 (≈ 11.4 µg/mL) | 20 (≈ 28.6 µg/mL) | 10 (≈ 14.3 µg/mL) | 2.5 (≈ 3.57 µg/mL) | 20 (≈ 28.6 µg/mL) | 8 (≈ 11.4 µg/mL) | 20 (≈ 28.6 µg/mL)
